Legend:
[1] = tested on: E. coli ATCC 25932, L. monocytogenes ATCC 19115; Staphylococcus aureus ATCC 6538P, Salmonella enterica ATCC 13076; assay: MIC-MBC in planktonic cells, the four pathogens together; type: cell-based; conditions: buffer used alone; range over the four pathogens; 18-20 hrs exposure
Description: The efficacy of the formulation was evaluated through minimal inhibitory concentration (MIC) and minimal bactericide concentration (MBC) against pathogens E. coli ATCC 25932, L. monocytogenes ATCC 19115; Staphylococcus aureus ATCC 6538P, Salmonella enterica ATCC 13076. […] The range of disinfectant concentrations was 0.037-5.17% w/v to acetate buffer and 0.043-6.06% w/v to propionate buffer. These concentrations are obtained from a stock solution which is diluted with filtered water.

Botrytis cinerea = assay: Inhibition of conidia germination; type: cell-based; conditions: 24 hours
Description: (§1) In summary 100 μl of inoculum suspension was added into 96 wells in plates, using the following concentrations: 0.037-14.8% w/v acetate buffer and 0.043-17.31% w/v propionate buffer; 100 μl water (fungus) or culture medium (bacteria) and 10 μl of inoculum suspension at a final concentration of 1×10^5 UFC/ml. An incubation of 24 hours at ±25° C. was performed, assays was made by triplicate. The antimicrobial effect was evaluated as follows: B. cinerea, a germinated conidia counting was made; and P. syringae, a minimal inhibitory concentration (MIC) was firstly made through presence/absence of turbidity, and from the concentrations in absence of turbidity 100 μl was taken to be transferred to a culture medium without the antimicrobial formulation and an incubation of 24 hours at room temperature was carried out to assay the minimal bactericide concentration (MBC).

[2] = tested on: E. coli ATCC 25932 biofilm; assay: CDC biofilm reactor, biofilm on stainless steel coupons; type: cell-based, Escherichia coli; conditions: 250 ppm, 30 minutes contact
Description: (§2) Tests on bacterial biofilms were also made to the pathogen strains, which were performed as follows: stainless steel coupons (type 316) were washed, installed on a support within a glass vessel and autoclaved at 121° C. by 20 minutes. To evaluate the disinfectant effect over a stablished biofilm to each separate bacteria, 3 ml of a concentration of 0.5 Mc Farland was inoculated within a vessel and then the same was incubated by 6, 12, 24 and 48 hours at 16° C. After each time of incubation supports containing coupons were removed and transferred to Falcon tubes of 50 ml containing the present synergistic disinfectant formulation at the following concentrations, DS1: 15% w/v (ratio acetate:propionate, 6.86:1) and DS2: 35% w/v (ratio acetate:propionate, 6.86:1). Peracetic acid was used (PAA) as control at concentrations of 250 ppm, the contact with the present synergistic disinfectant formulation or peracetic acid with supports containing biofilms was kept by 30 minutes. To perform a counting, an aliquot was taken, seeded into trypticase agar and incubated at 30° C. by 24 h, finally a counting of adhered cells was made. […]

[3] = tested on: Staphylococcus aureus ATCC 6538P biofilm; assay: as above; type: cell-based; conditions: 250 ppm, 30 minutes contact
Description: (§3) Tests on bacterial biofilms were also made to the pathogen strains, which were performed as follows: stainless steel coupons (type 316) were washed, installed on a support within a glass vessel and autoclaved at 121° C. by 20 minutes. To evaluate the disinfectant effect over a stablished biofilm to each separate bacteria, 3 ml of a concentration of 0.5 Mc Farland was inoculated within a vessel and then the same was incubated by 6, 12, 24 and 48 hours at 16° C. After each time of incubation supports containing coupons were removed and transferred to Falcon tubes of 50 ml containing the present synergistic disinfectant formulation at the following concentrations, DS1: 15% w/v (ratio acetate:propionate, 6.86:1) and DS2: 35% w/v (ratio acetate:propionate, 6.86:1). Peracetic acid was used (PAA) as control at concentrations of 250 ppm, the contact with the present synergistic disinfectant formulation or peracetic acid with supports containing biofilms was kept by 30 minutes. To perform a counting, an aliquot was taken, seeded into trypticase agar and incubated at 30° C. by 24 h, finally a counting of adhered cells was made. FIGS. 1 to 4 showing bacteria concentrations obtained to different times after 30 minutes of treatment using the above mentioned disinfectant formulations and peracetic acid as control to the following pathogens: L. monocytogenes ATCC 19115 (FIG. 1); E. coli ATCC 25932 (FIG. 2), Salmonella enterica ATCC 13076.L. (FIG. 3); and Staphylococcus aureus ATCC 6538P (FIG. 4).

[4] = tested on: Salmonella enterica ATCC 13076 biofilm; assay: as above; type: cell-based; conditions: 250 ppm, 30 minutes contact
Description: as §3

[5] = tested on: L. monocytogenes ATCC 19115 biofilm; assay: as above; type: cell-based, Listeria monocytogenes; conditions: 250 ppm, 30 minutes contact
Description: as §2

[6] = tested on: mesophyll aerobics and enterobacteria; assay: Disinfectant effect on non-inoculated meats, the 3 types of meats together; conditions: 2.5% Sodium Acetate; different meats, during test days
Description: Assays to evaluate antimicrobial effect on the surface of beef, chicken meat and salmon meat was performed. […] The growth of bacteria Escherichia coli was allowed in a TSB culture medium by 24 h at 35° C.
Disinfecting effect on a total mesophyll aerobic and enterobacteria microorganism counting was evaluated to initial non inoculated (E. coli) meat. Also, a concentration of 10^1 UFC/g of E. coli was inoculated and then the disinfectant effect was evaluated on such pathogen microorganism counting.
Meat (beef, chicken and salmon) was purchased the same date in which the assay was arranged and was kept under storing conditions at 4° C. up to using the same. Prior to initiating assays pieces of 5 grams, pieces were randomly selected to each treatment, and a) pieces were independently inoculated with 0.2 ml of culture comprising the above mentioned bacteria by separate and 2 ml was applied to the treatments to be defined below or b) pieces were only chopped and 2 ml of treatment was applied:
Meat pieces (inoculated or non-inoculated) with its respective treatments was transferred to tubes of 50 mL under conditions of sterility and stored at 4° C. up to its final evaluation. Assays were made by triplicate.
Antimicrobial activity evaluation was performed to 0, 3, 8 and 12 post-treatment days. […] Colonies were counted at 24 and 48 hours, depending the medium to be used to the counting.

Pseudomonas syringae = assay: MIC and MBC against agronomical pest; type: cell-based; conditions: buffer alone; 24 hours
Description: as §1

pathogen disease = assay: Disease incidence in inoculated fruits, 21-days aged fruits (fruit not stated)
Source text: Fruits having similar, size, form and color and having no visual damage by fungi were selected. To perform assays a 1-2 mm deep wound was made on the selected fruit by a needle and 10^5 UFC/ml B. cinerea and Penicillium spp. (to different samples, independent test) were inoculated through the same wound under sterility conditions, fruits was not disinfected prior to the inoculation procedures. Assays was made by triplicate on 6 units submitted to visual inspection during the treatment, which were equidistantly located therebetween in Petri plates of 100×15 mm and exposed to a disinfectant treatment (Different proportions and concentrations) spraying on the fruit 0.2 ml of the different synergistic proportion of the formulation, finally an incubation at 4° C. was allowed.
Four acetate/propionate mixtures (proportions) were tested, 17.2:1, 6.86:1, 1.72:1 and 0.043:1; for each of them two or three concentrations were tested. Treatments: Treatment A/Treatment 1: 3.38% w/v mixture acetate/propionate buffers. Treatment B/Treatment 2: 11.25% w/v mixture acetate/propionate buffers. Treatment C: 25% w/v mixture acetate/propionate buffers. Treatment D/Negative Control: Fruits with wound immersed in water. […]
Assays were evaluated to days 0 (control), 7, 14 and 21, a counting of fruits showing pathogen signs was made to determined incidence. […]

## CCC(=O)O [Propionate, propionate buffer]
[1]
  Concentration needed by separate to eliminate the pathogens (MBC): 0.43-3.46 % w/v
Botrytis cinerea; Botrytis cinerea, Propionate 2.6 % w/v
  inhibition at 2.6 % strength: 5.6%
Botrytis cinerea; Botrytis cinerea, Propionate 6.06 % w/v
  inhibition at 6.06 % strength: 18.1%
Botrytis cinerea; Botrytis cinerea, Propionate 8.65 % w/v
  inhibition at 8.65 % strength: 21.2%

## CC(=O)OO [peracetic acid]
[2]; 24-hours aged biofilms
  Elimination of biofilm: fully eliminate
[2]; biofilm after 6 and 12 hours
  Reduction of biofilm: completely reduced
[3]; 24-hours aged biofilms
  Elimination of biofilm: fully eliminate
[3]; biofilm after 6 and 12 hours
  Reduction of biofilm: completely reduced
[4]; 24-hours aged biofilms
  Elimination of biofilm: fully eliminate
[4]; biofilm after 6 and 12 hours
  Reduction of biofilm: completely reduced
[5]; 24-hours aged biofilms
  Elimination of biofilm: fully eliminate
[5]; biofilm after 6 and 12 hours
  Reduction of biofilm: completely reduced

## CC(=O)[O-].[Na+] [sodium acetate, Sodium Acetate]
[6]
  Aerobic mesophilic and enterobacterial counts: close to the negative control

## acetate buffer
Pseudomonas syringae
  MBC: 3.69 % w/v
[1]
  Concentration needed by separate to eliminate the pathogens (MBC): 0.74-3.69 % w/v
Botrytis cinerea; Acetate 2.22 % w/v, adjusted mortality media
  Inhibition of germination (%): 0.3%
Botrytis cinerea; Acetate 5.17 % w/v
  Inhibition of germination (%): 7.4%
Botrytis cinerea; Acetate 7.4 % w/v
  Inhibition of germination (%): 8.1%

## benzalkonium chloride
Pathogen disease
  Time for which pathogen disease / incidence is inhibited: 42 days

Reference: US20230052893A1, “A SYNERGISTIC BACTERICIDE AND BACTERIOSTATIC ORGANIC SANITIZING/DISINFECTANT/CLEANING FORMULATION” (UNIVERSIDAD DE CONCEPCIÓN, priority 2020, published 2023)
